Source: article PMC8093080 (Biochemistry, 2020)

Biological target: T1, trp RNA-binding attenuation protein (TRAP) (Geobacillus stearothermophilus, UniProt Q9X6J6)
T1 sequence (Q9X6J6 1-74): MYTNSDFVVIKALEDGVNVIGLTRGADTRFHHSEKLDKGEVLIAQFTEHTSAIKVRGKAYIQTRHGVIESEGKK
Test: ITC at […]°C in phosphate buffer

- Kd: 115 ± 3 nM
SMILES: N[C@@H](Cc1c[nH]c2ccccc12)C(=O)O [Trp, tryptophan]
